Data reported in US7803930B2, “Antisense modulation of apolipoprotein B-expression” (Isis Pharmaceuticals, Inc., priority 2002, dated 2010).
In the oligonucleotide strings, read from the 5' end, every base follows the letter of its sugar. An asterisk marks phosphorothioate; unmarked linkages are phosphodiester. Other units and linkages are bracketed, terminal groups are in braces. A string of capitals states the bases alone. e = 2'-O-(2-methoxyethyl) (MOE); [5mC] = 5-methylcytosine; d = 2'-deoxy (DNA)

System: human apolipoprotein B mRNA
Experiment: Inhibition of human apolipoprotein B mRNA levels in HepG2 cells, quantitative real-time PCR
Assay type: cell-based
Conditions: HepG2 cells treated with 150 nM of compound; averages from two experiments; quantitative real-time PCR
How it was run: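 Apolipoprotein B transcript was quantified by one-step TaqMan RT-PCR, normalized to GAPDH or RiboGreen RNA, and expressed as percent inhibition against an untreated-sample standard curve. HepG2 cells were harvested 16-24 h after oligonucleotide exposure, which was delivered with 3.75 μg/mL Lipofectin over 4-7 h at 80% confluency.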

Row | Substance | % INHIB (inhibition of human apolipoprotein B mRNA levels) [%]
1 | 281590 (e[5mC]*eT*eG*e[5mC]*eT*dT*d[5mC]*d[5mC]*d[5mC]*dT*dT*d[5mC]*dT*dG*dG*eA*eA*eT*eG*eG; antisense) [compound 281590] | 84
2 | 281591 (eT*eG*e[5mC]*e[5mC]*eA*d[5mC]*dA*dT*dT*dG*d[5mC]*d[5mC]*d[5mC]*dT*dT*e[5mC]*e[5mC]*eT*e[5mC]*eG; antisense) [compound 281591] | 90
3 | 281592 (eG*e[5mC]*eT*eG*eA*dT*d[5mC]*dA*dG*dA*dG*dT*dT*dG*dA*e[5mC]*eA*eA*eG*eG; antisense) [compound 281592] | 56
4 | 281593 (eT*eA*e[5mC]*eT*eG*dA*d[5mC]*dA*dG*dG*dA*d[5mC]*dT*dG*dG*e[5mC]*eT*eG*e[5mC]*eT; antisense) [compound 281593] | 93
5 | 281594 (eG*eA*eT*eG*eG*d[5mC]*dT*dT*d[5mC]*dT*dG*d[5mC]*d[5mC]*dA*d[5mC]*eA*eT*eG*e[5mC]*eT; antisense) [compound 281594] | 74
6 | 281595 (eG*eA*eT*eG*eT*dG*dG*dA*dT*dT*dT*dG*dG*dT*dG*e[5mC]*eT*e[5mC]*eT*e[5mC]; antisense) [compound 281595] | 76
7 | 281596 (eT*eG*eA*e[5mC]*eT*dG*d[5mC]*dT*dT*d[5mC]*dA*dT*d[5mC]*dA*d[5mC]*eT*eG*eA*eG*eG; antisense) [compound 281596] | 77
8 | 281597 (eG*eG*eT*eA*eG*dG*dT*dG*dA*d[5mC]*d[5mC]*dA*d[5mC]*dA*dT*e[5mC]*eT*eA*eT*e[5mC]; antisense) [compound 281597] | 36
9 | 281598 (eT*e[5mC]*eG*e[5mC]*eA*dG*d[5mC]*dT*dG*d[5mC]*dT*dG*dT*dG*d[5mC]*eT*eG*eA*eG*eG; antisense) [compound 281598] | 70
10 | 281599 (eT*eT*e[5mC]*e[5mC]*eA*dA*dT*dG*dA*d[5mC]*d[5mC]*d[5mC]*dG*d[5mC]*dA*eG*eA*eA*eT*e[5mC]; antisense) [compound 281599] | 74
11 | 281600 (antisense eG*eA*eT*e[5mC]*eA*dT*d[5mC]*dA*dG*dT*dG*dA*dT*dG*dG*e[5mC]*eT*eT*eT*eG) [compound 281600] | 52
12 | 281601 (antisense eA*eG*e[5mC]*e[5mC]*eT*dG*dG*dA*dT*dG*dG*d[5mC]*dA*dG*d[5mC]*eT*eT*eT*e[5mC]*eT) [compound 281601] | 83
13 | 281602 (antisense eG*eT*e[5mC]*eT*eG*dA*dA*dG*dA*dA*dG*dA*dA*d[5mC]*d[5mC]*eT*e[5mC]*e[5mC]*eT*eG) [compound 281602] | 84
14 | 281603 (antisense eT*eA*eT*e[5mC]*eT*dG*d[5mC]*d[5mC]*dT*dG*dT*dG*dA*dA*dG*eG*eA*e[5mC]*eT*e[5mC]) [compound 281603] | 82
15 | 281604 (antisense e[5mC]*eT*eG*eA*eG*dT*dT*d[5mC]*dA*dA*dG*dA*dT*dA*dT*eT*eG*eG*e[5mC]*eA) [compound 281604] | 78
16 | 281605 (antisense e[5mC]*eT*eT*e[5mC]*e[5mC]*dA*dA*dG*d[5mC]*d[5mC]*dA*dA*dT*d[5mC]*dT*e[5mC]*eG*eA*eT*eG) [compound 281605] | 82
17 | 281606 (antisense eT*eG*e[5mC]*eA*eA*d[5mC]*dT*dG*dT*dA*dA*dT*d[5mC]*d[5mC]*dA*eG*e[5mC]*eT*e[5mC]*e[5mC]) [compound 281606] | 86
18 | 281607 (antisense e[5mC]*e[5mC]*eA*eG*eT*dT*d[5mC]*dA*dG*d[5mC]*d[5mC]*dT*dG*d[5mC]*dA*eT*eG*eT*eT*eG) [compound 281607] | 84
19 | 281608 (antisense eG*eT*eA*eG*eA*dG*dA*d[5mC]*d[5mC]*dA*dA*dA*dT*dG*dT*eA*eA*eT*eG*eT) [compound 281608] | 62
20 | 281609 (antisense e[5mC]*eG*eT*eT*eG*dG*dA*dG*dT*dA*dA*dG*d[5mC]*dG*d[5mC]*e[5mC]*eT*eG*eA*eG) [compound 281609] | 70
21 | 281610 (antisense e[5mC]*eA*eG*e[5mC]*eT*d[5mC]*dT*dA*dA*dT*d[5mC]*dT*dG*dG*dT*eG*eT*e[5mC]*e[5mC]*e[5mC]) [compound 281610] | 69
22 | 281611 (antisense e[5mC]*eT*eG*eT*e[5mC]*d[5mC]*dT*d[5mC]*dT*d[5mC]*dT*d[5mC]*dT*dG*dG*eA*eG*e[5mC]*eT*e[5mC]) [compound 281611] | 93

Row | Substance | % INHIB (inhibition of human apolipoprotein B mRNA levels) [%]
23 | 281612 (antisense e[5mC]*eA*eA*eG*eG*dT*d[5mC]*dA*dT*dA*d[5mC]*dT*d[5mC]*dT*dG*e[5mC]*e[5mC]*eG*eA*eT) [compound 281612] | 83
24 | 281613 (antisense eG*eT*eA*eT*eG*dG*dA*dA*dA*dT*dA*dA*d[5mC]*dA*d[5mC]*e[5mC]*e[5mC]*eT*eT*eG) [compound 281613] | 70
25 | 281614 (antisense eT*eA*eA*eG*e[5mC]*dT*dG*dT*dA*dG*d[5mC]*dA*dG*dA*dT*eG*eA*eG*eT*e[5mC]) [compound 281614] | 63
26 | 281615 (antisense eT*eA*eG*eA*eT*d[5mC]*dT*d[5mC]*dT*dG*dG*dA*dG*dG*dA*eT*eT*eT*eG*e[5mC]) [compound 281615] | 81
27 | 281616 (antisense eG*eT*e[5mC]*eT*eA*dG*dA*dA*d[5mC]*dA*d[5mC]*d[5mC]*d[5mC]*dA*dG*eG*eA*eG*eA*eG) [compound 281616] | 66
28 | 281617 (antisense eA*e[5mC]*e[5mC]*eA*e[5mC]*dA*dG*dA*dG*dT*d[5mC]*dA*dG*d[5mC]*d[5mC]*eT*eT*e[5mC]*eA*eT) [compound 281617] | 89
29 | 281618 (antisense eA*eA*eG*e[5mC]*eA*dG*dA*d[5mC]*dA*dT*d[5mC]*dT*dG*dT*dG*eG*eT*e[5mC]*e[5mC]*e[5mC]) [compound 281618] | 90
30 | 281619 (antisense e[5mC]*eT*e[5mC]*eT*e[5mC]*d[5mC]*dA*dT*dT*dG*dA*dG*d[5mC]*d[5mC]*dG*eG*e[5mC]*e[5mC]*eA*eG) [compound 281619] | 96
31 | 281620 (antisense e[5mC]*e[5mC]*eT*eG*eA*dT*dA*dT*dT*d[5mC]*dA*dG*dA*dA*d[5mC]*eG*e[5mC]*eA*eG*e[5mC]) [compound 281620] | 89
32 | 281621 (antisense e[5mC]*eA*eG*eT*eG*d[5mC]*d[5mC]*dT*dA*dA*dG*dA*dT*dG*dT*e[5mC]*eA*eG*e[5mC]*eA) [compound 281621] | 53
33 | 281622 (antisense eA*eG*e[5mC]*eA*e[5mC]*d[5mC]*dA*dG*dG*dA*dG*dA*d[5mC]*dT*dA*e[5mC]*eA*e[5mC]*eT*eT) [compound 281622] | 88
34 | 281623 (antisense e[5mC]*e[5mC]*e[5mC]*eA*eT*d[5mC]*d[5mC]*dA*dG*dA*d[5mC]*dT*dG*dA*dA*eT*eT*eT*eT*eG) [compound 281623] | 59
35 | 281624 (antisense eG*eG*eT*eT*e[5mC]*dT*dA*dG*d[5mC]*d[5mC]*dG*dT*dA*dG*dT*eT*eT*e[5mC]*e[5mC]*e[5mC]) [compound 281624] | 75
36 | 281626 (antisense eA*eT*eG*eT*eG*d[5mC]*dA*dT*d[5mC]*dG*dA*dT*dG*dG*dT*e[5mC]*eA*eT*eG*eG) [compound 281626] | 88
37 | 281627 (antisense e[5mC]*e[5mC]*eA*eG*eA*dG*dA*dG*d[5mC]*dG*dA*dG*dT*dT*dT*e[5mC]*e[5mC]*e[5mC]*eA*eT) [compound 281627] | 82
38 | 281628 (antisense e[5mC]*eT*eA*eG*eA*d[5mC]*dA*d[5mC]*dG*dA*dG*dA*dT*dG*dA*eT*eG*eA*e[5mC]*eT) [compound 281628] | 81
39 | 281629 (antisense eT*e[5mC]*e[5mC]*eA*eA*dG*dT*d[5mC]*d[5mC]*dT*dG*dG*d[5mC]*dT*dG*eT*eA*eT*eT*e[5mC]) [compound 281629] | 83
40 | 281630 (antisense e[5mC]*eG*eT*e[5mC]*e[5mC]*dA*dG*dT*dA*dA*dG*d[5mC]*dT*d[5mC]*d[5mC]*eA*e[5mC]*eG*e[5mC]*e[5mC]) [compound 281630] | 82
41 | 281631 (antisense eT*e[5mC]*eA*eA*e[5mC]*dG*dG*d[5mC]*dA*dT*d[5mC]*dT*d[5mC]*dT*d[5mC]*eA*eT*e[5mC]*eT*e[5mC]) [compound 281631] | 88
42 | 281632 (antisense eT*eG*eA*eT*eA*dG*dT*dG*d[5mC]*dT*d[5mC]*dA*dT*d[5mC]*dA*eA*eG*eA*e[5mC]*eT) [compound 281632] | 75
43 | 281633 (antisense eG*eA*eT*eT*e[5mC]*dT*dG*dA*dT*dT*dT*dG*dG*dT*dA*e[5mC]*eT*eT*eA*eG) [compound 281633] | 73
44 | 281634 (antisense e[5mC]*eT*e[5mC]*eT*e[5mC]*dG*dA*dT*dT*dA*dA*d[5mC]*dT*d[5mC]*dA*eT*eG*eG*eA*e[5mC]) [compound 281634] | 81
